Test results reported in patent US10752612B2, “PLK4 inhibitors” (LUDWIG INSTITUTE FOR CANCER RESEARCH LTD, priority 2015, dated 2020).

biological target: T1, human Plk4 kinase domain (aa 2-275) (Homo sapiens, UniProt O00444); assay: Plk4 kinase assay (ADP-Glo); type: biochemical; details: Table 1
T1 construct: purified 6×His-tagged human Plk4 kinase domain (aa 2-275); 6xHis; made in house; host or cells: E. coli
T1 sequence (O00444 2-275): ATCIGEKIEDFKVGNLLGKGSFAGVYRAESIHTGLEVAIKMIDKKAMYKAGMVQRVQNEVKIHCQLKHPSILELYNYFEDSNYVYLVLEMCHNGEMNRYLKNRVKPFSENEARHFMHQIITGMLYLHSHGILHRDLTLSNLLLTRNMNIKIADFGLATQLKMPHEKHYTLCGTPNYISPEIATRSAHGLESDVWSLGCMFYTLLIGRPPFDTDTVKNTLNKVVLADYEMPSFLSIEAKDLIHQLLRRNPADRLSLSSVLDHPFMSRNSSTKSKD
Method in brief: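 Enzyme at 2.5-10 nM final, pH 8.0, reacted 4-16 hours at 25° C; ADP generation read by ADP-Glo luminescence. Ki derived from IC50 by Cheng-Prusoff or, for tight binders, Copeland formalism.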

Structure (SMILES)	IC50
CCc1c(C)nc(Sc2ccc(NC(=O)C3CC3)cc2)nc1Nc1cc(C)[nH]n1	> 1000 nM
CCOc1c(Nc2cc(C)[nH]n2)nc(Sc2ccc(NC(=O)C3CC3)cc2)nc1N1CCN(C(C)=O)CC1	100 to 1000 nM
CCOc1c(Nc2cc(C)[nH]n2)nc(Sc2ccc(NC(=O)C3CC3)cc2)nc1N1CCN(CCOC)CC1	100 to 1000 nM
CCOc1c(Nc2cc(C)[nH]n2)nc(Sc2ccc(NC(=O)C3CC3)cc2)nc1N(C)CCOC	100 to 1000 nM
COc1c(Nc2cc(C)[nH]n2)nc(Sc2ccc(NC(=O)C3CC3)cc2)nc1N1CCN(c2ccccc2)CC1	100 to 1000 nM
CCOc1c(Nc2cc(C)[nH]n2)nc(Sc2ccc(NC(C)=O)cc2)nc1N1CCCCC1	100 to 1000 nM
CCOc1c(Nc2cc(C)[nH]n2)nc(Sc2ccc(NC(C)=O)cc2)nc1N1CCNCC1	100 to 1000 nM
CCOc1c(Nc2cc(C)[nH]n2)nc(Sc2ccc(NC(C)=O)cc2)nc1N1CCOCC1	100 to 1000 nM
CCOc1c(Nc2cc(C)[nH]n2)nc(Sc2ccc(NC(C)=O)cc2)nc1N(CC)CC	100 to 1000 nM
CCOc1c(Nc2cc(C)[nH]n2)nc(Sc2ccc(NC(C)=O)cc2)nc1N(C)CC	100 to 1000 nM
CCOc1c(Nc2cc(C)[nH]n2)nc(Sc2ccc(NC(C)=O)cc2)nc1N1CCN(C(C)=O)CC1	100 to 1000 nM
CCOc1c(Nc2cc(C)[nH]n2)nc(Sc2ccc(NC(C)=O)cc2)nc1N1CCN(CCOC)CC1	100 to 1000 nM
CCOc1c(Nc2cc(C)[nH]n2)nc(Sc2ccc(NC(C)=O)cc2)nc1N1CCN(CCN(C)C)CC1	100 to 1000 nM
CCOc1c(Nc2cc(C)[nH]n2)nc(Sc2ccc(NC(=O)C3CCCC3)cc2)nc1N1CCCCC1	100 to 1000 nM
CCOc1c(Nc2cc(C)[nH]n2)nc(Sc2ccc(NC(=O)C3CCCC3)cc2)nc1N1CCNCC1	100 to 1000 nM
CCOc1c(Nc2cc(C)[nH]n2)nc(Sc2ccc(NC(=O)C3CCCC3)cc2)nc1N1CCOCC1	100 to 1000 nM
CCOc1c(Nc2cc(C)[nH]n2)nc(Sc2ccc(NC(=O)C3CCCC3)cc2)nc1N(CC)CC	> 1000 nM
CCOc1c(Nc2cc(C)[nH]n2)nc(Sc2ccc(NC(=O)C3CCCC3)cc2)nc1N(C)CC	100 to 1000 nM
CCOc1c(Nc2cc(C)[nH]n2)nc(Sc2ccc(NC(=O)C3CCCC3)cc2)nc1N1CCN(C(C)=O)CC1	100 to 1000 nM
CCOc1c(Nc2cc(C)[nH]n2)nc(Sc2ccc(NC(=O)C3CCCC3)cc2)nc1N1CCN(CCOC)CC1	100 to 1000 nM
CCOc1c(Nc2cc(C)[nH]n2)nc(Sc2ccc(NC(=O)C3CCCC3)cc2)nc1N1CCN(CCN(C)C)CC1	100 to 1000 nM

Structure (SMILES)	IC50
COc1c(Nc2cc(C)[nH]n2)nc(Sc2ccc(NC(=O)C3CC3)cc2)nc1NC1CCNCC1	100 to 1000 nM
CCOc1c(Nc2cc(C)[nH]n2)nc(Sc2ccc(NC(=O)C3CC3)cc2)nc1N1CCN(C(=O)COC)CC1	100 to 1000 nM
CCOc1c(Nc2cc(C)[nH]n2)nc(Sc2ccc(NC(=O)C3CC3)cc2)nc1N1CCN(C(=O)CCN(C)C)CC1	100 to 1000 nM
CCOc1c(Nc2cc(C)[nH]n2)nc(Sc2ccc(NC(=O)C3CC3)cc2)nc1N1CCN(C(=O)CCOC)CC1	100 to 1000 nM
CCOc1c(Nc2cc(C)[nH]n2)nc(Sc2ccc(NC(=O)C3CC3)cc2)nc1N1CCN(C2CCN(C)CC2)CC1	100 to 1000 nM
CCOc1c(Nc2cc(C)[nH]n2)nc(Sc2ccc(NC(=O)C3CC3)cc2)nc1N1CCN(CC2CC2)CC1	100 to 1000 nM
CCOc1c(Nc2cc(C)[nH]n2)nc(Sc2ccc(NC(=O)C3CCCC3)cc2)nc1N1CCN(C(=O)CN(C)C)CC1	100 to 1000 nM
CCOc1c(Nc2cc(C)[nH]n2)nc(Sc2ccc(NC(=O)C3CCCC3)cc2)nc1N1CCN(C(=O)COC)CC1	100 to 1000 nM
CCOc1c(Nc2cc(C)[nH]n2)nc(Sc2ccc(NC(=O)C3CCCC3)cc2)nc1N1CCN(C(=O)CCOC)CC1	100 to 1000 nM
CCOc1c(Nc2cc(C)[nH]n2)nc(Sc2ccc(NC(=O)C3CCCC3)cc2)nc1N1CCN(C2CCN(C)CC2)CC1	100 to 1000 nM
CCOc1c(Nc2cc(C)[nH]n2)nc(Sc2ccc(NC(=O)C3CCCC3)cc2)nc1N1CCN(CC2CC2)CC1	100 to 1000 nM
COc1c(Nc2cc(C)[nH]n2)nc(Sc2ccc(NC(=O)C3CC3)cc2)nc1NC1CCN(C)CC1	100 to 1000 nM
CCOc1c(Nc2cc(C)[nH]n2)nc(Sc2ccc(NC(=O)C3CC3)cc2)nc1N1CCN(C(=O)CN(C)C)CC1	100 to 1000 nM
CCOc1c(Nc2cc(C)[nH]n2)nc(Sc2ccc(NC(=O)C3CC3)cc2)nc1N1CCN(C2CCNCC2)CC1	100 to 1000 nM
CCOc1c(Nc2cc(C)[nH]n2)nc(Sc2ccc(NC(C)=O)cc2)nc1N1CCN(C)CC1	100 to 1000 nM
CCOc1c(Nc2cc(C)[nH]n2)nc(Sc2ccc(NC(C)=O)cc2)nc1N(C)C	100 to 1000 nM
CCOc1c(Nc2cc(C)[nH]n2)nc(Sc2ccc(NC(=O)C3CCCC3)cc2)nc1N1CCN(C2CCNCC2)CC1	100 to 1000 nM
CCOc1c(Nc2cc(C)[nH]n2)nc(Sc2ccc(NC(=O)C3CCCC3)cc2)nc1N1CCN(C)CC1	100 to 1000 nM
CCOc1c(Nc2cc(C)[nH]n2)nc(Sc2ccc(NC(=O)C3CCCC3)cc2)nc1N(C)C	100 to 1000 nM
CCOc1c(Nc2cc(C)[nH]n2)nc(Sc2ccc(NC(=O)C3CCCC3)cc2)nc1N1CCN(C(=O)CCN(C)C)CC1	> 1000 nM
CCSc1c(Nc2cc(C)[nH]n2)nc(Sc2ccc(NC(=O)C3CC3)cc2)nc1N1CCN(C)CC1	100 to 1000 nM

Further lines, results first:

IC50	Structure (SMILES)
100 to 1000 nM	Cc1cc(Nc2nc(Sc3ccc(NC(=O)C4CC4)cc3)nc(N3CCN(C)CC3)c2CO)n[nH]1
< 1000 nM	COc1c(Nc2cc(C)[nH]n2)nc(Sc2ccc(NC(=O)C3CC3)cc2)nc1N1CCN(C)CC1
< 1000 nM	Cc1cc(Nc2nc(Sc3ccc(NC(=O)C4CC4)cc3)nc(N3CCOCC3)c2C)n[nH]1
< 1000 nM	COc1c(C)nc(Sc2ccc(NC(=O)C3CC3)cc2)nc1Nc1cc(C)[nH]n1
< 1000 nM	Cc1cc(Nc2nc(Sc3ccc(NC(=O)C4CC4)cc3)nc3c2C(C)CC3)n[nH]1 (centres unmarked)
< 1000 nM	Cc1cc(Nc2nc(Sc3ccc(NC(=O)C4CC4)cc3)nc(N3CCN(C(C)C)CC3)c2C)n[nH]1
< 1000 nM	CC(=O)N1CCN(c2nc(Sc3ccc(NC(=O)C4CC4)cc3)nc(Nc3cc(C)[nH]n3)c2C)CC1
< 1000 nM	COCCN1CCN(c2nc(Sc3ccc(NC(=O)C4CC4)cc3)nc(Nc3cc(C)[nH]n3)c2C)CC1
< 1000 nM	COc1c(Nc2cc(C)[nH]n2)nc(Sc2ccc(NC(=O)C3CCCC3)cc2)nc1N1CCNCC1
< 1000 nM	COc1c(Nc2cc(C)[nH]n2)nc(Sc2ccc(NC(=O)C3CCCC3)cc2)nc1N1CCN(CCN(C)C)CC1
100 to 1000 nM	CCOc1c(Nc2cc(C)[nH]n2)nc(Sc2ccc(NC(=O)C3CC3)cc2)nc1N1CCN(CCN(C)C)CC1
100 to 1000 nM	CCOc1c(NCCOC)nc(Sc2ccc(NC(=O)C3CC3)cc2)nc1Nc1cc(C)[nH]n1
< 1000 nM	COc1c(Nc2cc(C)[nH]n2)nc(Sc2ccc(NC(=O)C3CC3)cc2)nc1N1CCN(C2CCN(C)CC2)CC1
< 1000 nM	COc1c(Nc2cc(C)[nH]n2)nc(Sc2ccc(NC(=O)C3CC3)cc2)nc1N1CCN(C(=O)CN(C)C)CC1
< 1000 nM	COc1c(Nc2cc(C)[nH]n2)nc(Sc2ccc(NC(=O)C3CC3)cc2)nc1N1CCN(C(=O)CCN(C)C)CC1
< 1000 nM	COCC(=O)N1CCN(c2nc(Sc3ccc(NC(=O)C4CC4)cc3)nc(Nc3cc(C)[nH]n3)c2OC)CC1
< 1000 nM	COCCC(=O)N1CCN(c2nc(Sc3ccc(NC(=O)C4CC4)cc3)nc(Nc3cc(C)[nH]n3)c2OC)CC1
< 1000 nM	COc1c(Nc2cc(C)[nH]n2)nc(Sc2ccc(NC(=O)C3CC3)cc2)nc1N1CCN(CC2CC2)CC1
< 1000 nM	CNCCN1CCN(c2nc(Sc3ccc(NC(=O)C4CC4)cc3)nc(Nc3cc(C)[nH]n3)c2OC)CC1

IC50	Structure (SMILES)
< 1000 nM	CCC1CCc2nc(Sc3ccc(NC(=O)C4CC4)cc3)nc(Nc3cc(C)[nH]n3)c21 (centres unmarked)
< 1000 nM	Cc1cc(Nc2nc(Sc3ccc(NC(=O)C4CCC4)cc3)nc(N3CCN(C)CC3)c2C)n[nH]1
< 1000 nM	CC(=O)Nc1ccc(Sc2nc(Nc3cc(C)[nH]n3)c(C)c(N3CCN(C)CC3)n2)cc1
< 1000 nM	CC(=O)Nc1ccc(Sc2nc(Nc3cc(C)[nH]n3)c(C)c(N3CCN(CCN(C)C)CC3)n2)cc1
< 1000 nM	COCCN1CCN(c2nc(Sc3ccc(NC(C)=O)cc3)nc(Nc3cc(C)[nH]n3)c2C)CC1
< 1000 nM	CC(=O)Nc1ccc(Sc2nc(Nc3cc(C)[nH]n3)c(C)c(N3CCN(C(C)=O)CC3)n2)cc1
< 1000 nM	CC(=O)Nc1ccc(Sc2nc(Nc3cc(C)[nH]n3)c(C)c(N3CCNCC3)n2)cc1
< 1000 nM	CC(=O)Nc1ccc(Sc2nc(Nc3cc(C)[nH]n3)c(C)c(N3CCOCC3)n2)cc1
< 1000 nM	CC(=O)Nc1ccc(Sc2nc(Nc3cc(C)[nH]n3)c(C)c(N3CCN(C4CCN(C)CC4)CC3)n2)cc1
< 1000 nM	Cc1cc(Cc2nc(Sc3ccc(NC(=O)C4CCCC4)cc3)nc(N3CCN(CCN(C)C)CC3)c2C)n[nH]1
< 1000 nM	COCCN1CCN(c2nc(Sc3ccc(NC(=O)C4CCCC4)cc3)nc(Cc3cc(C)[nH]n3)c2C)CC1
< 1000 nM	CC(=O)N1CCN(c2nc(Sc3ccc(NC(=O)C4CCCC4)cc3)nc(Nc3cc(C)[nH]n3)c2C)CC1
< 1000 nM	Cc1cc(Nc2nc(Sc3ccc(NC(=O)C4CCCC4)cc3)nc(N3CCNCC3)c2C)n[nH]1
< 1000 nM	Cc1cc(Nc2nc(Sc3ccc(NC(=O)C4CCCC4)cc3)nc(N3CCOCC3)c2C)n[nH]1
< 1000 nM	Cc1cc(Nc2nc(Sc3ccc(NC(=O)C4CCCC4)cc3)nc(N3CCN(C4CCN(C)CC4)CC3)c2C)n[nH]1
< 1000 nM	COc1c(Nc2cc(C)[nH]n2)nc(Sc2ccc(NC(C)=O)cc2)nc1N1CCCCC1
< 1000 nM	CC(=O)Nc1ccc(Sc2nc(Nc3cc(C)[nH]n3)c(C)c(N(C)C(C)C)n2)cc1
< 1000 nM	CC(=O)Nc1ccc(Sc2nc(Nc3cc(C)[nH]n3)c(C)c(N3CCN(C(=O)CCN(C)C)CC3)n2)cc1
< 1000 nM	COCC(=O)N1CCN(c2nc(Sc3ccc(NC(C)=O)cc3)nc(Nc3cc(C)[nH]n3)c2C)CC1
